According to patent US6172091A, “1,2-Disubstituted cyclopropanes” (Ortho-McNeil Pharmaceutical, Inc., priority 1999, dated 2001):

What was measured:
[1] = biological target: T1, calcium sensing receptor as found in the human parathyroid gland (Homo sapiens, UniProt P41180); experiment: calcium mobilization fluorescence (FLIPR) assay, agonist mode; format: cell-based; details: transfected HEK 293 cells; 1 mM calcium standard; Tables 2-7; read-out: In Vitro: CS50, where potency is at 50% of the calcium standard potency
T1 construct: expressed in transfected cells; host or cells: HEK 293
T1 sequence (P41180 20-1078): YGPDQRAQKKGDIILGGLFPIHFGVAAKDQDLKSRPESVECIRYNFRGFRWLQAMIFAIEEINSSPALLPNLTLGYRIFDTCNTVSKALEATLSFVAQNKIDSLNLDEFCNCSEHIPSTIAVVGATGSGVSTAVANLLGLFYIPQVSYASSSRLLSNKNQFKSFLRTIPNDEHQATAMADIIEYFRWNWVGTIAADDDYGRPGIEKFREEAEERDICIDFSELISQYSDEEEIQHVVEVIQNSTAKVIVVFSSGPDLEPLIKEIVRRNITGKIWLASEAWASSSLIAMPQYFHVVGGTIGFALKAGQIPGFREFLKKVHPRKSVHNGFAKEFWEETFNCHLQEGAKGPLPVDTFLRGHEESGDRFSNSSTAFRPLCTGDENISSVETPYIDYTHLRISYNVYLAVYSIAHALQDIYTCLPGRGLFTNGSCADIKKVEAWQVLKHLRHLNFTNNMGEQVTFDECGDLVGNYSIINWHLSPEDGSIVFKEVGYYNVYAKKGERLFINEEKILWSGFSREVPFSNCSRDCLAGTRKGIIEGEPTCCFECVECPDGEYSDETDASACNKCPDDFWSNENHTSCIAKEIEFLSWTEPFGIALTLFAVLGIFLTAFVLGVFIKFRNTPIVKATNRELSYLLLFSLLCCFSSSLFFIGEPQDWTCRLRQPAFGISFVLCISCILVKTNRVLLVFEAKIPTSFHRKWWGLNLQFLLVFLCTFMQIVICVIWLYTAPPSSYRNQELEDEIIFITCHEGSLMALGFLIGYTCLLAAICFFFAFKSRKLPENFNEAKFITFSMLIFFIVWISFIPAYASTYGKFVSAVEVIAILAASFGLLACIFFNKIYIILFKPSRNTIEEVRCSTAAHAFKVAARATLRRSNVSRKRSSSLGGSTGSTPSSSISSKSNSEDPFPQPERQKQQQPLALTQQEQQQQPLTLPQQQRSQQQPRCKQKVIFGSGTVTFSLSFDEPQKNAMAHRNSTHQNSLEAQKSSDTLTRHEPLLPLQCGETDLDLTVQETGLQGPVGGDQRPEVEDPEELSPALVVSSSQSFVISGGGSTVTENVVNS
Protocol: (§1) In vitro potency is measured via calcium mobilization in a fluorescence assay using HEK 293 cells transfected to express the same calcium sensing receptor as found in the human parathyroid gland. In this assay calcium-sensing receptor agonists and antagonists are detected. The assay is conducted in a 96-well plate format with the use of FLIPR (fluorescent imaging plate reader; Molecular Devices, Sunnyvale, Calif.). The HEK 293 cell media is replaced with the fluorescence dye FLUO-3AM and Pluronic detergent in FLIPR assay buffer. Cells are incubated 60 min (in the dark, at room temperature), then washed with assay buffer and placed in FLIPR. Images are collected by FLIPR in the absence of test compound, then in the presence of test compound (at 25 µM) and then after addition of a calcium challenge (at 1 mM). In the agonist assay the difference between maximum and minimum fluorescence values is measured following test compound addition. Hits have a change in fluorescence greater than or equal to 50% of that seen with a 1 mM calcium standard. In the antagonist assay the difference between maximum and minimum fluorescence values is measured following the calcium challenge addition. When compared to challenge in the absence of test compound, hits reduce fluorescence by at least 50%. In vivo activity is measured via parathyroid hormone (PTH) supression by test compounds in a rat model. Compound is administered orally using 0.5% Tween 80 in distilled water as vehicle, with a volume of approximately 10 mL/kg body weight. Blood samples are taken at 15 minutes (and 4 h if required) post oral dosing. Serum PTH levels are determined with an immunoradiometric assay.
(§2) Not all compounds were tested in each of the screens. […] Each entry represents a mixture of cis and trans cyclopropanes (R,S; S,R; R,R; S,S) with R absolute configuration when R^3=CH3. Table 2 lists compounds that are trans at the cyclopropane (R,R; S,S) with R absolute configuration at the benzylamine position, or without stereochemistry at the benzylamine. Table 3 lists compounds with R,R absolute stereochemistry at the cyclopropane and a mixture of stereochemistry at the benzylamine position. 20. In vitro data in Table 1 is percent activation of the calcium-sensing receptor versus baseline. In vitro data in Tables 2-7 is expressed as a CS50, where potency is at 50% of the calcium standard potency, and the unit is μM. In vivo data represents % blood serum PTH vs. vehicle at 30 mg/kg test compound, levels measured after 15 minutes.

[2] = system: parathyroid hormone (PTH); experiment: parathyroid hormone (PTH) suppression in a rat model; format: in vivo; details: 30 mg/kg test compound, levels measured after 15 minutes; for In Vivo: % blood serum PTH vs. vehicle: oral, 30 mg/kg; for change in vivo at 30 mg/kg: Rattus norvegicus, po, 0.25 h, read-out: In Vivo: % blood serum PTH vs. vehicle
Protocol: as §1, §2

Row | SMILES | EC50 [1] [µM] | In Vivo: % blood serum PTH vs. vehicle [2] | change in vivo at 30 mg/kg [2] [%]
1 | COc1cccc([C@@H](C)NCC2CC2c2ccccc2F)c1 (single isomer, unassigned) [Compound 19] | 9.6 | -89.2% | 
2 | COc1cccc([C@@H](C)NCC2CC2c2ccc(Cl)s2)c1 (stereo partly drawn) [Compound 35] |  |  | -15.4
3 | COc1cccc([C@@H](C)NCC2CC2c2cccc(F)c2)c1 (stereo partly drawn) [Compound 74] |  | -2.6% | 
4 | c1ccc([C@@H]2C[C@H]2CNCc2ccncc2)cc1 (relative stereo) [Compound 30] | > 25 |  | 70.1
5 | c1ccc([C@@H]2C[C@H]2CNCc2ccccn2)cc1 (relative stereo) [Compound 28] | > 25 |  | 72
6 | CCC(=O)N(C[C@@H]1C[C@H]1c1ccccc1)[C@H](C)c1cccc(OC)c1 [Compound 54] | > 25 |  | -33.7
7 | COc1cccc([C@@H](C)NCC2CC2c2ccccc2)c1 (stereo partly drawn) [Compound 3] |  |  | -62.1
8 | Cc1cccc(C(C)NC[C@@H]2C[C@H]2c2ccccc2)c1 (stereo partly drawn) [Compound 40] | > 25 |  | -51.2
9 | COc1cccc([C@@H](C)NC[C@@H]2C[C@H]2c2ccccc2)c1 [Compound 49, N-((R,R)-2-phenylcyclopropanylmethyl)-1-(R)-(3-methoxyphenyl)ethylamine] | 5 |  | -83.6
10 | COc1cccc([C@@H](C)NCC2CC2c2cccc(F)c2)c1 (stereo partly drawn) [Compound 73] |  | -52.5% | 
11 | COc1cccc([C@@H](C)NC[C@@H]2C[C@@H]2c2cc(C)ccc2C)c1 [Compound 70] | 21 |  | -24.7
12 | CC(NC[C@@H]1C[C@H]1c1ccccc1)c1cccc(Cl)c1 (stereo partly drawn) [Compound 46, N-((R,R)-2-phenylcyclopropanylmethyl)-1-(3-chlorophenyl)ethylamine] | > 25 |  | -15.9
13 | COc1cccc([C@@H](C)N(C[C@@H]2C[C@H]2c2ccccc2)C(C)=O)c1 [Compound 53] | > 25 |  | -6.4
14 | COc1cccc([C@@H](C)NCC2CC2c2ccccc2F)c1 (stereo partly drawn) [Compound 17] | 5 |  | -94.8
15 | COc1cccc([C@H](C)NC[C@@H]2C[C@H]2c2ccccc2)c1 [Compound 63] | > 25 |  | -40.1
16 | CC(NC[C@@H]1C[C@H]1c1ccccc1)c1cccc(OC(F)(F)F)c1 (stereo partly drawn) [Compound 39] |  |  | 0
17 | COc1cccc([C@H](C)NC[C@@H]2C[C@H]2c2cccc(F)c2)c1 [Compound 76] |  |  | 16.8
18 | COc1cccc(CNC[C@@H]2C[C@H]2c2ccccc2)c1 (relative stereo) [Compound 31] | > 25 |  | -26.5
19 | COc1cccc([C@H](C)NCC2CC2c2cccc(F)c2)c1 (stereo partly drawn) [Compound 77] |  | +2.1% | 
20 | COc1cccc([C@@H](C)NC[C@@H]2C[C@H]2c2cccc(F)c2)c1 (mixture of isomers) [Compound 20, N-(trans-2-(3-fluorophenyl)cyclopropanylmethyl)-1-(R)-(3-methoxyphenyl)ethylamine] | 11 | -95.2% | 
21 | COc1cccc([C@@H](C)NCC2CC2c2ccccc2Cl)c1 (stereo partly drawn) [Compound 4] |  |  | -11.9
22 | COc1cccc([C@@H](C)N(C[C@@H]2C[C@H]2c2ccccc2)C(=O)OCC(C)C)c1 [Compound 57] | > 25 |  | -5.3
23 | COc1cccc([C@@H](C)NC[C@H]2C[C@@H]2c2cccc(F)c2)c1 [Compound 21] | 10.9 |  | 
24 | C[C@@H](NC[C@@H]1C[C@H]1c1ccccc1)c1cccc(O)c1 [Compound 48] | 8.7 |  | -41.7

Row | SMILES | EC50 [1] [µM] | In Vivo: % blood serum PTH vs. vehicle [2] | change in vivo at 30 mg/kg [2] [%]
25 | COc1cccc([C@@H](C)N(C[C@@H]2C[C@H]2c2ccccc2)C(=O)C(C)(C)C)c1 [Compound 55] | > 25 |  | 
26 | COc1cccc([C@@H](C)NC[C@@H]2C[C@@H]2c2ccccc2)c1 [Compound 61] | 11.2 |  | 0
27 | CC(C)Oc1cccc([C@@H](C)NC[C@@H]2C[C@H]2c2ccccc2)c1 [Compound 51] | > 25 |  | -7.3
28 | COc1cccc([C@@H](C)NCC2CC2c2ccc(F)cc2)c1 (stereo partly drawn) [Compound 23] | 13.5 |  | -55
29 | CCOc1cccc([C@@H](C)NC[C@@H]2C[C@H]2c2ccccc2)c1 [Compound 50, N-((R,R)-2-phenylcyclopropanylmethyl)-1-(R)-(3-ethoxyphenyl)ethylamine] | 11.9 |  | -57
30 | CC(NC[C@@H]1C[C@H]1c1ccccc1)c1cccc(F)c1 (stereo partly drawn) [Compound 45] | > 25 |  | -19.6
31 | COc1cccc([C@@H](C)NCC2CC2(C)c2ccccc2)c1 (stereo partly drawn) [Compound 68] | > 25 |  | -94.5
32 | COc1cccc([C@H](C)NC[C@H]2C[C@@H]2c2cccc(F)c2)c1 [Compound 75] |  |  | -0.9
33 | COc1cccc([C@H](C)NC[C@H]2C[C@H]2c2ccccc2)c1 [Compound 65] | > 25 |  | -38.8
34 | COc1cccc([C@H](C)NCC2CC2c2cccc(F)c2)c1 (stereo partly drawn) [Compound 78] |  | +21.4% | 
35 | COc1cccc([C@@H](C)NCC2CC2c2cccn2C)c1 (stereo partly drawn) [Compound 27] | 7.8 |  | 
36 | COc1cccc([C@@H](C)NCC2CC2c2ccc([N+](=O)[O-])cc2[N+](=O)[O-])c1 (stereo partly drawn) [Compound 34] | > 25 |  | 
37 | COc1cccc([C@@H](C)NCC2CC2c2ccc(C)s2)c1 (stereo partly drawn) [Compound 36] |  |  | -34.2
38 | COc1cccc([C@@H](C)NCC2CC2c2ccc(Cl)cc2)c1 (stereo partly drawn) [Compound 6] |  |  | -9.3
39 | COc1cccc([C@@H](C)NCC2CC2c2cccnc2)c1 (stereo partly drawn) [Compound 10] | 37.1 |  | 
40 | COc1cccc([C@@H](C)NC[C@@H]2C[C@H]2c2cccc(F)c2)c1 [Compound 72] |  | -93.4% | 
41 | COc1cccc([C@@H](C)NCC2CC2c2ccccn2)c1 (stereo partly drawn) [Compound 9] | 6.5 |  | 
42 | COc1cccc([C@@H](C)NCC2CC2c2ccsc2)c1 (stereo partly drawn) [Compound 26] | 3.4 |  | 
43 | COc1cccc([C@@H](C)NCC2CC2c2ccncc2)c1 (stereo partly drawn) [Compound 11] | > 25 |  | 
44 | COc1cccc([C@@H](C)NC[C@H]2C[C@@H]2c2cccc(F)c2)c1 [Compound 71] |  |  | -78.7
45 | COc1cccc([C@@H](C)NCC2CC2c2sccc2C)c1 (stereo partly drawn) [Compound 38] |  |  | -51
46 | COc1cccc([C@@H](C)NCC2CC2c2cc(Br)cs2)c1 (stereo partly drawn) [Compound 37] |  |  | -24.8
47 | COc1cccc([C@@H](C)NCC2CC2c2cc(C)ccc2C)c1 (stereo partly drawn) [Compound 1] |  | +31.4% | 
